The NIST ThermoML archive (doi:10.1021/je900218z)
“And” between values parts separate entries of the source, which are not always exact repeats. Equal entries are not always repeated. ± gives the expanded uncertainty stated by the source.

Test: mn = molality of the nth substance listed, in mol/kg
Settings: 298.15 K, 101 kPa, Liquid

O=S(=O)([O-])[O-].[Na+].[Na+] [sodium sulfate] + O
mass density (m1 = 0.2): 1021.93 ± 0.32 kg/m3
mass density (m1 = 0.4999): 1057.3 ± 0.4 kg/m3 and 1057.32 ± 0.4 kg/m3 and 1057.31 ± 0.4 kg/m3
mass density (m1 = 0.6999): 1079.92 ± 0.46 kg/m3 and 1079.94 ± 0.46 kg/m3 and 1079.93 ± 0.46 kg/m3
mass density (m1 = 0.9868): 1111.12 ± 0.54 kg/m3
mass density (m1 = 0.9979): 1112.28 ± 0.54 kg/m3
mass density (m1 = 0.9999): 1112.48 ± 0.54 kg/m3
mass density (m1 = 1.196): 1133.04 ± 0.59 kg/m3
mass density (m1 = 1.2): 1133.46 ± 0.59 kg/m3 and 1133.45 ± 0.59 kg/m3
